The numbers were not newly measured in US8445670B2, “Combinatorial library approach to iminocyclitols with biological activity” (United Therapeutics Corporation, priority 2005, dated 2013), which cites them from elsewhere.

The structures appear in SMILES notation.

The data set has as its system bovine viral diarrhoea virus (BVDV). The note with it: reference DNJ derivatives, values given with literature references.

In the case of `CCCCCCCCCN1C[C@H](O)[C@@H](O)[C@H](O)[C@H]1CO` [N-n-nonyl DNJ], the IC50 is 10 µM.

Consider `CCCCN1C[C@H](O)[C@@H](O)[C@H](O)[C@H]1CO` [N-n-butyl DNJ], for which the IC50 was 125 µM.
